Reference: article PMC5784158, “New 2-Aryl-9-methyl-β-carbolinium salts as Potential Acetylcholinesterase Inhibitor agents: Synthesis, Bioactivity and Structure–Activity Relationship” (Scientific Reports, 2018)
Like-named read-outs stand apart in the source and are kept apart here.

Biological target: AChE (Musca domestica, UniProt Q7YWJ9)
Assay: biochemical
Type: biochemical, fly
Procedure: AChE (E.C. 3.1.1.7) (BR, 200 u/mg) from fly’s head and BuChE (E.C. 3.1.1.8) (BR, 20 u/mg) from horse serum were purchased from Shanghai Yuanye biological technology Co. Ltd (Shanghai, China).
The inhibitory activities of the compounds against AChE were evaluated according to Ellman’s coupled enzyme assay[47] with the following modifications. 90 μL potassium phosphate buffer (PBS, 0.1 M, pH 7.4), 10 μL the solution of 2 units/mL AChE in 0.1 M PBS (pH 7.4) and 10 μL the solution of 200 μM test compounds in the mixed solution of methanol-PBS (pH 7.4) (1:9, V/V) were added to each well of a 96-well plate. The methanol-PBS solution was used as a blank control. After incubation at room temperature for 10 min, 60 μL the solution of 10 mM DTNB in PBS was added into each the well. The plate was placed on crushed ices and cooled for 20 min. To each the well was added 30 μL the solution of 7.5 mM ATCh in PBS (pH 7.4). […] Each test was performed in triplicate. Inhibition rates of the enzyme were calculated relative to a control sample. The inhibitory activities against BuChE were measured as described above for AChE, using 0.7 unit/mL BuChE and 4 mM BuTCh instead of AChE and ATCh as the enzyme and substrate, respectively.
The probit value of the average inhibition rate for each test concentration and the corresponding lg[concentration] were used to establish enzyme inhibition regression equation by the linear least-square fitting method. IC50 values were calculated from the equations.

[1] = test concentration of the compound 10 μM
[2] = Estimated values based on the results in Table 1 (inhibition rate at 10 μM), read-out: IC50 AChE, estimated values

Chain of AChE (Q7YWJ9 81-659): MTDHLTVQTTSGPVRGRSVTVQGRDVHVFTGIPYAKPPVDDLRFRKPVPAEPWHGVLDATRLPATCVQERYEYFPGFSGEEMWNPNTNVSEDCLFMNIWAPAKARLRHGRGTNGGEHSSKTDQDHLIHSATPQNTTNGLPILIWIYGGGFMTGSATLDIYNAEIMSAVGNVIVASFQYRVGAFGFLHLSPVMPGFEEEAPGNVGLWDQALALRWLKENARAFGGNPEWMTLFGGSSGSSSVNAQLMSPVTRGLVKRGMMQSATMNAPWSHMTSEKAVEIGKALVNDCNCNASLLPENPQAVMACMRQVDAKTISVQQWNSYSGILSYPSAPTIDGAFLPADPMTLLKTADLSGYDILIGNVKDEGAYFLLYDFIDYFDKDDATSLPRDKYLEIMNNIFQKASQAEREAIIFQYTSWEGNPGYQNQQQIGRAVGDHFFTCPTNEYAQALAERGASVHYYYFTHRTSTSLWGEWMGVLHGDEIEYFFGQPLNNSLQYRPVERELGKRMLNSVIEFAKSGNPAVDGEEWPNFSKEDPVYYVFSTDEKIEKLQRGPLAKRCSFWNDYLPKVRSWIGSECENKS

Br.c1ccc(-n2ccc3c4ccccc4nc-3c2)cc1 [Compound B46, 2-Phenyl-β-carboline bromide]
IC50 (read-out: IC50 ± S.D AChE): 18 ± 2.42 µM | Inhibition rate (%) [1]: 43.0 ± 1.8 r %

Brc1ccc([N+]2=Cc3[nH]c4ccccc4c3CC2)cc1.[Br-] [Compound A47]
IC50 [2]: > 10 µM | Inhibition rate (%) [1]: 16.0 ± 1.7 mnop %

CC(C)n1c2ccccc2c2cc[n+](-c3ccccc3)cc21.[Br-] [Compound B40, 9-Iso-propyl-2-phenyl-β-carboline bromide]
IC50 (read-out: IC50 ± S.D AChE): 0.54 ± 0.16 µM | Inhibition rate (%) [1]: 86.9 ± 0.8 fgh %

Cn1c2c(c3ccccc31)CC[N+](c1ccccc1F)=C2.[Br-] [Compound A2]
IC50 [2]: > 10 µM | Inhibition rate (%) [1]: 15.1 ± 2.8 mnop %

Cn1c2ccccc2c2cc[n+](-c3ccccc3Cl)cc21.[Br-] [Compound B5, 9-Methyl-2-(2-chlorophenyl)-β-carboline bromide]
IC50 [2]: > 10 µM | Inhibition rate (%) [1]: 38.5 ± 1.9 st %

Cn1c2c(c3ccccc31)CC[N+](c1cccc(C(F)(F)F)c1)=C2.[Br-] [Compound A26]
IC50 [2]: > 10 µM | Inhibition rate (%) [1]: 12.8 ± 2.1 kln %

CCOC(=O)Cn1c2c(c3ccccc31)CC[N+](c1ccccc1)=C2.[Br-] [Compound A45]
IC50 [2]: > 10 µM | Inhibition rate (%) [1]: 38.8 ± 4.6 j %

COc1ccccc1[N+]1=Cc2c(c3ccccc3n2C)CC1.[Br-] [Compound A17]
IC50 [2]: > 10 µM | Inhibition rate (%) [1]: 5.8 ± 2.4 qrs %

C=CCn1c2ccccc2c2cc[n+](-c3ccccc3)cc21.[Br-] [Compound B41, 9-Allyl-2-phenyl-β-carboline bromide]
IC50 (read-out: IC50 ± S.D AChE): 1.18 ± 0.3 µM | Inhibition rate (%) [1]: 78.2 ± 1.6 k %

Cn1c2c(c3ccccc31)CC[N+](c1ccc(Cl)cc1Cl)=C2.[Br-] [Compound A30]
IC50 (10 μM, read-out: IC50 AChE, NA): > 10 µM | Inhibition rate (%) [1]: −0.5 ± 2.4 tu %

Cn1c2ccccc2c2cc[n+](-c3ccccc3I)cc21.[Br-] [Compound B11, 9-Methyl-2-(2-iodohenyl)-β-carboline bromide]
IC50 [2]: > 10 µM | Inhibition rate (%) [1]: 43.3 ± 1.8 r %

Cn1c2c(c3ccccc31)CC[N+](c1ccccc1I)=C2.[Br-] [Compound A11]
IC50 (10 μM, read-out: IC50 AChE, NA): > 10 µM | Inhibition rate (%) [1]: −10.6 ± 3.0 w %

COc1ccccc1-[n+]1ccc2c3ccccc3n(C)c2c1.[Br-] [Compound B17, 9-Methyl-2-(2-methoxylphenyl)-β-carboline bromide]
IC50 [2]: > 10 µM | Inhibition rate (%) [1]: 41.0 ± 2.9 rs %

Cn1c2c(c3ccccc31)CC[N+](c1cccc([N+](=O)[O-])c1)=C2.[Br-] [Compound A28]
IC50 [2]: > 10 µM | Inhibition rate (%) [1]: 14.5 ± 3.9 mnop %

Cn1c2ccccc2c2cc[n+](-c3cc(Cl)cc(Cl)c3)cc21.[Br-] [Compound B31, 9-Methyl-2-(3,5-dichlorophenyl)-β-carboline bromide]
IC50 [2]: > 10 µM | Inhibition rate (%) [1]: 18.9 ± 2.5 v %

Cn1c2c(c3ccccc31)CC[N+](c1cccc(Cl)c1)=C2.[Br-] [Compound A6]
IC50 [2]: > 10 µM | Inhibition rate (%) [1]: 19.3 ± 4.0 lm %

Cn1c2ccccc2c2cc[n+](-c3ccccc3O)cc21.[Br-] [Compound B14, 9-Methyl-2-(2-hydroxyhenyl)-β-carboline bromide]
IC50 [2]: > 10 µM | Inhibition rate (%) [1]: 23.9 ± 4.3 v %

Cn1c2c(c3ccccc31)CC[N+](c1ccccc1Cl)=C2.[Br-] [Compound A5]
IC50 [2]: > 10 µM | Inhibition rate (%) [1]: 2.4 ± 8.0 stu %

Cn1c2c(c3ccccc31)CC[N+](c1ccccc1Br)=C2.[Br-] [Compound A8]
IC50 [2]: > 10 µM | Inhibition rate (%) [1]: 5.9 ± 1.0 qrs %

CCn1c2ccccc2c2cc[n+](-c3ccccc3)cc21.[Br-] [Compound B38, 9-Ethyl-2-phenyl-β-carboline bromide]
IC50 (read-out: IC50 ± S.D AChE): 0.76 ± 0.21 µM | Inhibition rate (%) [1]: 87.8 ± 1.1 efgh %

Cn1c2ccccc2c2cc[n+](-c3cccc([N+](=O)[O-])c3)cc21.[Br-] [Compound B28, 9-Methyl-2-(3-nitrophenyl)-β-carboline bromide]
IC50 [2]: > 10 µM | Inhibition rate (%) [1]: 34.9 ± 1.8 tu %

Cn1c2ccccc2c2cc[n+](-c3ccccc3Br)cc21.[Br-] [Compound B8, 9-Methyl-2-(2-bromophenyl)-β-carboline bromide]
IC50 [2]: > 10 µM | Inhibition rate (%) [1]: 32.1 ± 0.9 u %

Cn1c2c(c3ccccc31)CC[N+](c1ccc(C(F)(F)F)cc1)=C2.[Br-] [Compound A27]
IC50 [2]: > 10 µM | Inhibition rate (%) [1]: 28.4 ± 1.0 k %

CC(C)Cn1c2c(c3ccccc31)CC[N+](c1ccccc1)=C2.[Br-] [Compound A43]
IC50 [2]: > 10 µM | Inhibition rate (%) [1]: 46.5 ± 1.9 ghi %

CCCn1c2ccccc2c2cc[n+](-c3ccccc3)cc21.[Br-] [Compound B39, 9-Propyl-2-phenyl-β-carboline bromide]
IC50 (read-out: IC50 ± S.D AChE): 3.08 ± 0.66 µM | Inhibition rate (%) [1]: 78.8 ± 0.9 jk %

Cn1c2c(c3ccccc31)CC[N+](c1ccccc1C#N)=C2.[Br-] [Compound A23]
IC50 [2]: > 10 µM | Inhibition rate (%) [1]: 10.1 ± 1.6 pqr %

Cn1c2ccccc2c2cc[n+](-c3cccc(Br)c3)cc21.[Br-] [Compound B9, 9-Methyl-2-(3-bromophenyl)-β-carboline bromide]
IC50 [2]: ~10 µM | Inhibition rate (%) [1]: 48.8 ± 6.6 q %

CCOC(=O)Cn1c2ccccc2c2cc[n+](-c3ccccc3)cc21.[Br-] [Compound B45, 9-(Ethoxy-2-oxyethyl)-2-phenyl-β-carboline bromide]
IC50 [2]: > 10 µM | Inhibition rate (%) [1]: 42.0 ± 0.7 rs %

CCCCn1c2ccccc2c2cc[n+](-c3ccccc3)cc21.[Br-] [Compound B42, 9-Butyl-2-phenyl-β-carboline bromide]
IC50 (read-out: IC50 ± S.D AChE): 2.91 ± 0.33 µM | Inhibition rate (%) [1]: 65.7 ± 0.6 m %

Cn1c2c(c3ccccc31)CC[N+](c1cccc(Br)c1)=C2.[Br-] [Compound A9]
IC50 [2]: > 10 µM | Inhibition rate (%) [1]: 16.2 ± 3.3 mno %

CC(C)Cn1c2ccccc2c2cc[n+](-c3ccccc3)cc21.[Br-] [Compound B43, 9-Iso-butyl-2-phenyl-β-carboline bromide]
IC50 (read-out: IC50 ± S.D AChE): 0.98 ± 0.03 µM | Inhibition rate (%) [1]: 84.1 ± 0.6 hi %

COc1ccc2c(c1)c1cc[n+](-c3ccccc3)cc1n2C.[Br-] [Compound B34, 6-Methoxy-9-methyl-2-phenyl-β-carboline bromide]
IC50 (read-out: IC50 ± S.D AChE): 0.94 ± 0.23 µM | Inhibition rate (%) [1]: 85.7 ± 2.5 ghi %

Cn1c2c(c3ccccc31)CC[N+](c1ccc(C#N)cc1)=C2.[Br-] [Compound A25]
IC50 [2]: > 10 µM | Inhibition rate (%) [1]: 15.6 ± 1.8 mnop %

Cn1c2c(c3ccccc31)CC[N+](c1ccc(Br)cc1Br)=C2.[Br-] [Compound A33]
IC50 (10 μM, read-out: IC50 AChE, NA): > 10 µM | Inhibition rate (%) [1]: no activity | Inhibition rate (%) (test concentration of the compound 10 μM, 10 µM): −7.0 ± 8.3 vw %

[Br-].c1ccc(Cn2c3ccccc3c3cc[n+](-c4ccccc4)cc32)cc1 [Compound B44, 9-Benzyl-2-phenyl-β-carboline bromide]
IC50 (read-out: IC50 ± S.D AChE): 11.2 ± 2.54 µM | Inhibition rate (%) [1]: 47.8 ± 2.0 q %

Cn1c2ccccc2c2cc[n+](-c3c(F)cccc3F)cc21.[Br-] [Compound B29, 9-Methyl-2-(2,6-difluorophenyl)-β-carboline bromide]
IC50 [2]: ~10 µM | Inhibition rate (%) [1]: 48.5 ± 3.1 pq %

Cn1c2c(c3ccccc31)CC[N+](c1cccc(I)c1)=C2.[Br-] [Compound A12]
IC50 [2]: > 10 µM | Inhibition rate (%) [1]: 10.1 ± 2.8 pqr %

Cn1c2c(c3ccccc31)CC[N+](c1cccc(C#N)c1)=C2.[Br-] [Compound A24]
IC50 [2]: > 10 µM | Inhibition rate (%) [1]: 18.9 ± 0.3 lmn %

Cn1c2c(c3ccccc31)CC[N+](c1ccccc1O)=C2.[Br-] [Compound A14]
IC50 [2]: > 10 µM | Inhibition rate (%) [1]: 23.2 ± 2.5 kl %

Cn1c2ccccc2c2cc[n+](-c3ccccc3)cc21.[Br-] [Compound B1, 9-Methyl-2-phenyl-β-carboline bromide]
IC50 (read-out: IC50 ± S.D AChE): 3.18 ± 0.12 µM | Inhibition rate (%) [1]: 71.5 ± 0.3 l %

Cn1c2ccccc2c2cc[n+](-c3ccc(C#N)cc3)cc21.[Br-] [Compound B25, 9-Methyl-2-(4-cyanophenyl)-β-carboline bromide]
IC50 [2]: > 10 µM | Inhibition rate (%) [1]: 36.8 ± 0.8 t %

COc1cccc([N+]2=Cc3c(c4ccccc4n3C)CC2)c1.[Br-] [Compound A18]
IC50 [2]: > 10 µM | Inhibition rate (%) [1]: 4.7 ± 1.5 rst %

Cn1c2c(c3ccccc31)CC[N+](c1cc(Cl)cc(Cl)c1)=C2.[Br-] [Compound A31]
IC50 (10 μM, read-out: IC50 AChE, NA): > 10 µM | Inhibition rate (%) [1]: 0.7 ± 0.5 stu %

Cn1c2c(c3ccccc31)CC[N+](c1c(F)cccc1F)=C2.[Br-] [Compound A29]
IC50 (10 μM, read-out: IC50 AChE, NA): > 10 µM | Inhibition rate (%) [1]: −3.3 ± 2.0 uv %

Cc1ccc(N2CCc3c(n(C)c4ccccc34)C2)cc1 [Compound C1, 9-methyl-2-p-toly-1,2,3,4-tetrahydro-β-carboline]
IC50 (10 μM, read-out: IC50 AChE, NA): > 10 µM | inhibition at 10 µM (test concentration of the compound 10 μM, read-out: Inhibition rate (%)): -2.3 ± 3.2%

Cn1c2cc(F)ccc2c2cc[n+](-c3ccccc3)cc21.[Br-] [Compound B36, 7-Fluoro-9-methyl-2-phenyl-β-carboline bromide]
IC50 (read-out: IC50 ± S.D AChE): 2.61 ± 0.51 µM | Inhibition rate (%) [1]: 76.2 ± 1.1 k %
